Like-named read-outs stand apart in the source and are kept apart here.
What was measured:
kappa opioid receptor [1] = molecular target: T1, kappa opioid receptor (Homo sapiens, UniProt P41145); experiment: GTPγS binding assay (G-protein activation); type: biochemical; conditions: for EC50: 3 parameter nonlinear regression, nc = did not converge; for GTPγS Emax (% U60): relative to U69,593 = 100% Emax; for GTPγS maximum stimulation observed at 10 μM (starred Emax cells): * compounds that did not reach plateau
Target sequence in this assay (P41145 whole entry): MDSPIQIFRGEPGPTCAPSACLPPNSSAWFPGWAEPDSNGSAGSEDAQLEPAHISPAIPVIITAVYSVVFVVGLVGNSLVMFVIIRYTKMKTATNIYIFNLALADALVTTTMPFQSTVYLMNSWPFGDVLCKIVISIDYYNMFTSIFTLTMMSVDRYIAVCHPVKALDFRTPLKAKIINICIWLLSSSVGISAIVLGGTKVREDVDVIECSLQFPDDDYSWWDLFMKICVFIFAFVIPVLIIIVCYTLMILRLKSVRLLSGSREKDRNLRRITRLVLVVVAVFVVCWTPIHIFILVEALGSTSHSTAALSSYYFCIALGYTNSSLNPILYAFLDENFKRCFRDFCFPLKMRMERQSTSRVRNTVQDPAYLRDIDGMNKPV

kappa opioid receptor [2] = molecular target: T1, kappa opioid receptor; experiment: Bias analysis by operational model, G protein vs βarrestin2, U69,593 as reference agonist; conditions: U69,593 reference agonist; global parameter fitting
Target sequence in this assay (P41145 whole entry): as above

kappa opioid receptor [3] = molecular target: T1, kappa opioid receptor; experiment: PathHunter DiscoverX β-arrestin2 recruitment (enzyme fragment complementation) assay; type: cell-based; conditions: for EC50: 3 parameter nonlinear regression, nc = did not converge; for β-arrestin2 Emax (% U60): relative to U69,593 = 100% Emax, ~ did not plateau at 100%; for β-arrestin2 maximum stimulation observed at 10 μM (starred Emax cells / % max at 10 uM): * compounds that did not reach plateau
Target sequence in this assay (P41145 whole entry): as above
Target sequence in this assay (P32121 whole entry partner): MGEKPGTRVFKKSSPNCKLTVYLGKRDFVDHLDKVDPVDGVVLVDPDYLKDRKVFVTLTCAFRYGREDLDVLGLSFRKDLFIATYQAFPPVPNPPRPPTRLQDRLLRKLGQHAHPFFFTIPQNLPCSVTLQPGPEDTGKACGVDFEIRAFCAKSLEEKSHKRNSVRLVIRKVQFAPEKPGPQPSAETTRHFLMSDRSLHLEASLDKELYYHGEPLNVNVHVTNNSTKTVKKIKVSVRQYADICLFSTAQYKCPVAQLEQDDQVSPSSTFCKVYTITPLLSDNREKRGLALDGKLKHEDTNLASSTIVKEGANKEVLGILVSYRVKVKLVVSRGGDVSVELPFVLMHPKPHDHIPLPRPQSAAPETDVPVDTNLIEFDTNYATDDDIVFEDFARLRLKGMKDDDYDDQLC

[4] = Microsomal stability, LC/MS detection over time; conditions: mouse hepatic microsomes
Description: (§2) Microsomal stability was determined using mouse hepatic microsomes and LC/MS detections over time (Zhou et al., 2013, 22).

[5] = mouse, microsomes
Description: as §2

adult male C57BL6/J mice [6] = conditions: mouse, in vivo
μ-opioid receptor = molecular target: T2, μ-opioid receptor (Homo sapiens, UniProt P35372); experiment: Radioligand binding displacement (Psychoactive Drug Screening Program); conditions: initial profiling
T2 construct: Psychoactive Drug Screening Program (UNC-CH)
Description: (§1) In some embodiments, the compounds disclosed herein are selective KOR binding ligands. As used herein, the term “selective binding ligands” refers to compounds, which display an increased selectivity for binding a particular KOR when compared to inhibiting other opioid receptors (such as μ- and δ-opioid receptors).

δ-opioid receptor = molecular target: T3, δ-opioid receptor (Homo sapiens, UniProt P41143); experiment: as above; conditions: initial profiling
T3 construct: Psychoactive Drug Screening Program (UNC-CH)
Description: as §1

adult male C57BL6/J mice [7] = experiment: Open field test box mouse model for sedation; conditions: 60 minutes

T2 sequence (P35372 whole entry): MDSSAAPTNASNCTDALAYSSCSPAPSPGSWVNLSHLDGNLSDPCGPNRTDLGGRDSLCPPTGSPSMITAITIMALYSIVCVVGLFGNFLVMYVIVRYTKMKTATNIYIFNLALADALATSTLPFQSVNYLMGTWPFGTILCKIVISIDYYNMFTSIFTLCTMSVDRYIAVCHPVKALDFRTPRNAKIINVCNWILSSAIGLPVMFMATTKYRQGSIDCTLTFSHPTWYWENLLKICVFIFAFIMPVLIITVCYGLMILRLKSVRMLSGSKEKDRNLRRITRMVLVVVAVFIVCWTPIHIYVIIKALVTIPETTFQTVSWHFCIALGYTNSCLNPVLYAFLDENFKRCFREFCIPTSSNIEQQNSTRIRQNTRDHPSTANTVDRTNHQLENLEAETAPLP
T3 sequence (P41143 whole entry): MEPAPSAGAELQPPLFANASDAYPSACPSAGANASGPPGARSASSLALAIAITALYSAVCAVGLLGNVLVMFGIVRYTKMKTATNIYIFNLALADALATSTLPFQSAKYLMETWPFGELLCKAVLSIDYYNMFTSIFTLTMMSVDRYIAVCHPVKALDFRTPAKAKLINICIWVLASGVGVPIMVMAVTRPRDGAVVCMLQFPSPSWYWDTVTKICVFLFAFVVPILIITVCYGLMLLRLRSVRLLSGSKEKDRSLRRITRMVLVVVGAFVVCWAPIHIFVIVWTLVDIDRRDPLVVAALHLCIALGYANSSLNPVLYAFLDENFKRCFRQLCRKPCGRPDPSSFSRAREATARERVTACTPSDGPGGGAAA

Cc1ccc(CCc2nnc(-c3nccn3C)n2Cc2cccs2)cc1C(F)(F)F [Compound 56]
EC50 (kappa opioid receptor [1]): 0.095 µM | GTPγS Emax (% U60) (kappa opioid receptor [1]): 105 % U60 | Bias (bias factor 10^ΔΔ(logτ/KA) Gprotein-Barr2) (kappa opioid receptor [2]): 12 | EC50 (kappa opioid receptor [3]; read-out: β-arrestin2 EC50): 888 nM | β-arrestin2 Emax (% U60) (kappa opioid receptor [3]): 98 % U60

Cc1ccc(CCc2nnc(-c3ccccn3)n2Cc2ccco2)cc1C(F)(F)F [Compound 2]
GTPγS Emax (% U60) (kappa opioid receptor [1]): 90 % U60 | Microsomal Stability ([4]; Table 1, head prints no unit (b175 gives min)): 0.9 | Microsomal Stability [4]: 0.9 min | β-arrestin2 Emax (% U60) (kappa opioid receptor [3]): 119 % U60 | EC50 (kappa opioid receptor [3]; β-arrestin2 EC50 (nM)): 788 nM

Clc1ccc(CCc2nnc(-c3ccccn3)n2Cc2cccs2)cc1 [Compound 27]
EC50 (kappa opioid receptor [1]): 0.035 µM | GTPγS Emax (% U60) (kappa opioid receptor [1]): 93 % U60 | Microsomal Stability [5]: 3.3 min | EC50 (kappa opioid receptor [3]; read-out: β-arrestin2 EC50): 3740 nM | β-arrestin2 Emax (% U60) (kappa opioid receptor [3]): 102 % U60

Cc1ccc(/C=C/c2nnc(-c3nccn3C)n2Cc2nccs2)cc1C(F)(F)F [53 (UNC9081)]
EC50 (kappa opioid receptor [1]): 0.309 µM | Microsomal Stability [5]: 14.5 min | EC50 (kappa opioid receptor [3]; read-out: β-arrestin2 EC50): 1570 nM | β-arrestin2 maximum stimulation observed at 10 μM (starred Emax cells / % max at 10 uM) (kappa opioid receptor [3]): 25.9 (% max at 10 uM) % U60

Cc1ccc(/C=C/c2nnc(-c3nccn3C)n2Cc2nccs2)cc1C(F)(F)F [Compound 51]
EC50 (kappa opioid receptor [1]): 0.309 µM | Microsomal Stability [5]: 14.5 min | EC50 (kappa opioid receptor [3]; read-out: β-arrestin2 EC50): 1680 nM | β-arrestin2 Emax (% U60) (kappa opioid receptor [3]): 34 % U60

Cc1ccc(/C=C/c2nnc(-c3ccccn3)n2Cc2ccco2)cc1C(F)(F)F (single isomer, unassigned) [Compound 40]
KOR potency / activity in words (SAR commentary) (kappa opioid receptor [1]): loss in potency | EC50 (kappa opioid receptor [1]): 1.6 µM | GTPγS Emax (% U60) (kappa opioid receptor [1]): 97 % U60 | Bias (bias factor 10^ΔΔ(logτ/KA) Gprotein-Barr2) (kappa opioid receptor [2]): 5 | Microsomal Stability [5]: 18 min | EC50 (kappa opioid receptor [3]; read-out: β-arrestin2 EC50): 7200 nM | β-arrestin2 Emax (% U60) (kappa opioid receptor [3]): 54 % U60

Cc1ccc(/C=C/c2nnc(-c3ccccn3)n2Cc2nccs2)cc1C(F)(F)F [Compound 48]
EC50 (kappa opioid receptor [1]): 0.767 µM | GTPγS Emax (% U60) (kappa opioid receptor [1]): 82 % U60 | Microsomal Stability [5]: 19.1 min | β-arrestin2 maximum stimulation observed at 10 μM (starred Emax cells / % max at 10 uM) (kappa opioid receptor [3]): 51* % U60

C(=C/c1nnc(-c2ccccn2)n1Cc1ccco1)/c1ccccc1 [Compound 39]
EC50 (kappa opioid receptor [1]): 1.79 µM | Microsomal Stability [5]: 12.6 min | β-arrestin2 maximum stimulation observed at 10 μM (starred Emax cells / % max at 10 uM) (kappa opioid receptor [3]): 19* % U60

Clc1ccc(CCc2nnc(-c3ccccn3)n2Cc2cccs2)c(Cl)c1 [Compound 33]
GTPγS Emax (% U60) (kappa opioid receptor [1]): 91 % U60 | Microsomal Stability [4]: 2.1 min | β-arrestin2 Emax (% U60) (kappa opioid receptor [3]): 154 % U60

Cc1ccc(/C=C/c2nnc(-c3ccccn3)n2Cc2cccs2)cc1C(F)(F)F [49 (UNC9009)]
EC50 (kappa opioid receptor [1]): 0.667 µM | GTPγS Emax (% U60) (kappa opioid receptor [1]): 83.2 % U60 | Bias (bias factor 10^ΔΔ(logτ/KA) Gprotein-Barr2) (kappa opioid receptor [2]): 6.7 | EC50 (kappa opioid receptor [3]; read-out: β-arrestin2 EC50): 20600 nM | β-arrestin2 maximum stimulation observed at 10 μM (starred Emax cells / % max at 10 uM) (kappa opioid receptor [3]): 36.4 (% max at 10 uM) % U60

Clc1ccc(CCc2nnc(-c3ccccn3)n2Cc2cccs2)cc1Cl [Compound 32]
Microsomal Stability [4]: 1.5 min

Cc1ccc(/C=C/c2nnc(-c3ccccn3)n2Cc2ccco2)cc1C(F)(F)F [42 (UNC9008)]
EC50 (kappa opioid receptor [1]): 1.6 µM | GTPγS Emax (% U60) (kappa opioid receptor [1]): 96.5 % U60 | Bias (bias factor 10^ΔΔ(logτ/KA) Gprotein-Barr2) (kappa opioid receptor [2]): 3.5 | EC50 (kappa opioid receptor [3]; read-out: β-arrestin2 EC50): 51300 nM | β-arrestin2 Emax (% U60) (kappa opioid receptor [3]): 119 % U60

Brc1ccccc1CCc1nnc(-c2ccccn2)n1Cc1cccs1 [Compound 30]
GTPγS Emax (% U60) (kappa opioid receptor [1]): 84 % U60 | Microsomal Stability [5]: 1.7 min | EC50 (kappa opioid receptor [3]; read-out: β-arrestin2 EC50): > 10000 nM | β-arrestin2 maximum stimulation observed at 10 μM (starred Emax cells / % max at 10 uM) (kappa opioid receptor [3]): 53* % U60

OC(Cc1ccccc1)c1nnc(-c2ccccn2)n1Cc1ccco1 (centres unmarked) [Compound 41]
KOR potency / activity in words (SAR commentary) (kappa opioid receptor [1]): loss in potency | GTPγS maximum stimulation observed at 10 μM (starred Emax cells) (kappa opioid receptor [1]): 22* % U60 | Microsomal Stability [5]: 17.4 min | β-arrestin2 maximum stimulation observed at 10 μM (starred Emax cells / % max at 10 uM) (kappa opioid receptor [3]): 0* % U60

FC(Cc1nnc(-c2ccccn2)n1Cc1cccs1)c1ccccc1 (centres unmarked) [Compound 46]
EC50 (kappa opioid receptor [1]): 1.06 µM | Microsomal Stability [5]: 69.7 min | EC50 (kappa opioid receptor [3]; read-out: β-arrestin2 EC50): > 10000 nM | β-arrestin2 maximum stimulation observed at 10 μM (starred Emax cells / % max at 10 uM) (kappa opioid receptor [3]): 64* % U60

Brc1cccc(CCc2nnc(-c3ccccn3)n2Cc2cccs2)c1 [Compound 29]
GTPγS Emax (% U60) (kappa opioid receptor [1]): 89 % U60 | Microsomal Stability [5]: 3.1 min | EC50 (kappa opioid receptor [3]; read-out: β-arrestin2 EC50): 5020 nM | β-arrestin2 Emax (% U60) (kappa opioid receptor [3]): 114 % U60

Cc1ccc(CCc2nnc(-c3cccn3C)n2Cc2cccs2)cc1C(F)(F)F [Compound 23]
EC50 (kappa opioid receptor [1]): 0.036 µM | Microsomal Stability [5]: 3.1 min | EC50 (kappa opioid receptor [3]; read-out: β-arrestin2 EC50): 1320 nM

FC(F)(F)c1ccc(CCc2nnc(-c3ccccn3)n2Cc2cccs2)cc1Cl [Compound 34]
EC50 (kappa opioid receptor [1]): 0.0014 µM | Microsomal Stability [5]: 1.3 min | EC50 (kappa opioid receptor [3]; read-out: β-arrestin2 EC50): 127 nM

Cc1ccc(CCc2nnc(-c3ccccn3)n2Cc2cccs2)cc1C(F)(F)F [Compound 5]
sedation in open field test activity monitor (adult male C57BL6/J mice [6]): does not induce sedation | displacement of radioligand binding to μ-opioid receptor (μ-opioid receptor): less than 50% | displacement of radioligand binding to δ-opioid receptor (δ-opioid receptor): less than 50% | EC50 (kappa opioid receptor [3]; read-out: β-arrestin2 EC50): 624 nM | β-arrestin2 Emax (% U60) (kappa opioid receptor [3]): 110 % U60

Cc1ccc(CSc2nnc(-c3ccccn3)n2Cc2ccco2)cc1C(F)(F)F [Triazole 1.1]
sedation in open field test activity monitor (adult male C57BL6/J mice [7]): does not induce sedation | time spent in the center of the open field box (adult male C57BL6/J mice [7]): did not effect center time | Microsomal Stability [4]: 1.1 min

Cc1ccc(/C=C/c2nnc(-c3nccn3C)n2Cc2cccs2)cc1C(F)(F)F [Compound 50]
EC50 (kappa opioid receptor [1]): 1.01 µM | GTPγS Emax (% U60) (kappa opioid receptor [1]): 77 % U60 | Microsomal Stability [5]: 12.2 min | EC50 (kappa opioid receptor [3]; read-out: β-arrestin2 EC50): 55800 nM | β-arrestin2 maximum stimulation observed at 10 μM (starred Emax cells / % max at 10 uM) (kappa opioid receptor [3]): 38* % U60

C(=C/c1nnc(-c2ccccn2)n1Cc1ccco1)/c1ccccc1 [Compound 38]
GTPγS maximum stimulation observed at 10 μM (starred Emax cells) (kappa opioid receptor [1]): 3* % U60 | Microsomal Stability [5]: 19.4 min | β-arrestin2 maximum stimulation observed at 10 μM (starred Emax cells / % max at 10 uM) (kappa opioid receptor [3]): 0* % U60

Cc1ccc(CCc2nnc(-c3ccccn3)n2Cc2nccs2)cc1C(F)(F)F [Compound 7]
EC50 (kappa opioid receptor [1]): 0.051 µM | GTPγS Emax (% U60) (kappa opioid receptor [1]): 63 % U60 | Microsomal Stability [5]: 2.1 min | EC50 (kappa opioid receptor [3]; read-out: β-arrestin2 EC50): 3570 nM | β-arrestin2 Emax (% U60) (kappa opioid receptor [3]): 82 % U60

Fc1ccc(CCc2nnc(-c3ccccn3)n2Cc2cccs2)cc1 [Compound 26]
EC50 (kappa opioid receptor [1]): 0.288 µM | GTPγS Emax (% U60) (kappa opioid receptor [1]): 92 % U60 | Microsomal Stability [5]: 3.1 min | EC50 (kappa opioid receptor [3]; read-out: β-arrestin2 EC50): 3020 nM | β-arrestin2 Emax (% U60) (kappa opioid receptor [3]): 75 % U60

Clc1ccc(CCc2nnc(-c3ccccn3)n2Cc2ccco2)cc1 [Compound 52]
EC50 (kappa opioid receptor [1]): 0.099 µM | GTPγS Emax (% U60) (kappa opioid receptor [1]): 84 % U60 | Microsomal Stability [5]: 3.3 min | EC50 (kappa opioid receptor [3]; read-out: β-arrestin2 EC50): 4530 nM | β-arrestin2 Emax (% U60) (kappa opioid receptor [3]): 191 % U60

Cc1ccc(CCc2nnc(-c3nccn3C)n2Cc2ccco2)cc1C(F)(F)F [Compound 54]
EC50 (kappa opioid receptor [1]): 0.069 µM | GTPγS Emax (% U60) (kappa opioid receptor [1]): 92 % U60 | Microsomal Stability [5]: 1.6 min | EC50 (kappa opioid receptor [3]; read-out: β-arrestin2 EC50): 788 nM | β-arrestin2 Emax (% U60) (kappa opioid receptor [3]): 112 % U60 | Emax (weak partial agonist) (kappa opioid receptor [3]; text b193, assay not named): about 26%

From US20260242362A1, “PREPARATION OF 3,4,5-TRISUBSTITUTED TRIAZOLES AND METHODS OF USING THE SAME” (University of Florida Research Foundation, Incorporated, priority 2023, published 2026)
